Results reported in paper PMC9186412, “Rational Framework for the Design of Trp- and Arg-Rich Peptide Antibiotics Against Multidrug-Resistant Bacteria” (Frontiers in Microbiology, 2022).
Values after ≈ are worked out from the molar mass of the structure shown. Where two headings read alike, the source gives them in different places. Blank lines part the entries; values can stand above or below the molecule they belong to. Where no end group is shown, it is not given here.

Key:
[1] = system: S. aureus; assay: microbe, parasite or virus in culture; format: cell-based; settings: Staphylococcus aureus, 18 h, MHB2, 18 h, 37°C
Protocol: (§1) Bacterial clinical isolates, used for initial screening and in previous studies ([Deslouches et al., 2013]; [Lin et al., 2018]), were anonymously provided by the clinical microbiology laboratory of the University of Pittsburgh medical Center. The panel used for secondary screening was from [CDC (2013)] (Supplementary Table 3), with resistance profiles data. Bacteria are stored in lock-secured –80°C freezer and typically retrieved by obtaining single colonies on agar plates prior for subsequent liquid broth cultures. Suspensions of test bacteria were prepared from log phase of growth by diluting overnight cultures at 1:100 with fresh cation-adjusted MHB (MHB2, Millipore Sigma, United States) and incubating for additional 3–4 h. Bacteria were spun at 3,000 × g for 10 min and the pellet resuspended in test condition media (Millipore Sigma, United States) to determine bacterial turbidity using a Den-1B densitometer (Grant Instruments, United States) at 0.5 McFarland (unit of bacterial density) corresponding to […].
(§2) To examine antibacterial activity, we used minor modifications of a standard growth inhibition assay endorsed by the Clinical and Laboratory Standards Institute (CLSI), as previously described ([Deslouches et al., 2013]). Bacteria were incubated with each of the indicated peptides in MHB2. The bacterial cells were kept in an incubator for 18 h at 37°C, which is linked to a robotic system that feeds a plate reader every hour with one of 8 × 96-well plates. This set-up allows the collection of growth kinetic data at A 570 (absorbance at 570 nm) to examine growth inhibition in real time (BioTek Instruments, United States). […] The assays are typically repeated a second time. If the MIC is different, a third experimental trial is performed to confirm the MIC. To assess bactericidal properties of the peptide, the assay was modified by using 15% fetal bovine serum (FBS, for a more physiologically relevant test condition) mixed with 25% MHB2 and 60% PBS. Bacterial cells (colony forming unit/mL or CFU/mL) were enumerated after incubating treated bacteria for 3 h and plating serially diluted samples on broth agar medium at 37°C overnight. Minimum bactericidal concentration (MBC) was determined as the peptide concentration at which complete bacterial killing was observed. […] Data were analyzed using GraphPad Prism software.

[2] = system: E. Faecium; assay: microbe, parasite or virus in culture; format: cell-based, Enterococcus Facium; settings: Enterococcus faecium, 18 h, MHB2, 18 h, 37°C
Protocol: as §1, §2

[3] = system: CDC AR isolates; parameters: key: S (green), susceptible; I (blue), intermediate; R (red), resistant; settings: data provided by the CDC, ref CDC, cited from earlier work
Text: Supplement Table_3.XLSX, sheet "CDC AR isolates profiles" | column: G(-) strains

[4] = system: A. baumannii; assay: microbe, parasite or virus in culture; format: cell-based, Acinetobacter baumannii; settings: Acinetobacter baumannii, 18 h, MHB2, 18 h, 37°C
Protocol: as §1, §2

[5] = system: E. coli; assay: microbe, parasite or virus in culture; format: cell-based, Escherichia coli; settings: Escherichia coli, 18 h, MHB2, 18 h, 37°C
Protocol: as §1, §2

[6] = system: Enterobacter spp; assay: microbe, parasite or virus in culture; format: cell-based, Enterobacter spp (aerogenes, cloacae); settings: Enterobacter, 18 h, UPMC, MHB2, 18 h, 37°C
Protocol: as §1, §2

[7] = system: K. pneumoniae; assay: microbe, parasite or virus in culture; format: cell-based, Klebsiella pneumoniae; settings: 18 h
Protocol: as §1, §2

[8] = system: P. aeruginosa; assay: microbe, parasite or virus in culture; format: cell-based, Pseudomonas aeruginosa; settings: Pseudomonas aeruginosa, 18 h, MHB2, 18 h, 37°C
Protocol: as §1, §2

[9] = system: CDC AR isolates; parameters: key: S (green), susceptible; I (blue), intermediate; R (red), resistant; settings: Staphylococcus aureus SA461, CDC AR isolate; data provided by the CDC; ref CDC; cited from earlier work
[10] = Enterobacter cloacae E62, CDC AR isolate
[11] = Enterobacter cloacae E544, CDC AR isolate
[12] = Enterobacter cloacae E545, CDC AR isolate
[13] = Enterobacter cloacae E546, CDC AR isolate
[14] = Escherichia coli EC541, CDC AR isolate
[15] = Escherichia coli EC543, CDC AR isolate
[16] = Escherichia coli EC544, CDC AR isolate
[17] = Escherichia coli EC549, CDC AR isolate
[18] = Klebsiella pneumoniae KP542, CDC AR isolate
[19] = Klebsiella pneumoniae KP548, CDC AR isolate
[20] = Klebsiella pneumoniae KP550, CDC AR isolate
[21] = Klebsiella pneumoniae KP552, CDC AR isolate
[22] = strain AB-A2, UPMC clinical strain, A570, confirmed by 2nd or 3rd trial
[23] = Klebsiella pneumoniae, strain KP43816, MHB2, 18 h, 37°C
[24] = Klebsiella pneumoniae, strain KPA5 (colistin-resistant), UPMC, MHB2, 18 h, 37°C
[25] = Klebsiella pneumoniae, strain KPB3, UPMC, MHB2, 18 h, 37°C
[26] = Klebsiella pneumoniae, strain KPC3, UPMC, MHB2, 18 h, 37°C
[27] = Acinetobacter baumannii AB273, CDC AR isolate
[28] = Acinetobacter baumannii AB274, CDC AR isolate
[29] = Acinetobacter baumannii AB275, CDC AR isolate
[30] = Acinetobacter baumannii AB276, CDC AR isolate
[31] = Pseudomonas aeruginosa PA229, CDC AR isolate
[32] = Pseudomonas aeruginosa PA230, CDC AR isolate
[33] = Pseudomonas aeruginosa PA231, CDC AR isolate
[34] = Pseudomonas aeruginosa PA232, CDC AR isolate
[35] = Pseudomonas aeruginosa PA239, CDC AR isolate

MIC ([1]; strain SA12212, UPMC): 16 µM (≈ 7.27 µg/mL)
MIC ([1]; strain SA18710, UPMC): 16 µM (≈ 7.27 µg/mL)
MIC ([1]; strain SA49775): 2 µM (≈ 0.909 µg/mL)
MIC ([1]; strain SA-US300): 8 µM (≈ 3.64 µg/mL)
MIC ([2]; strain EF23614, UPMC): > 16 µM
MIC ([2]; strain EF24670, UPMC): > 16 µM
MIC ([2]; strain EF26215, UPMC): 4 µM (≈ 1.82 µg/mL)
MIC ([2]; strain EF26692, UPMC): 4 µM (≈ 1.82 µg/mL)
Molecule: Cc1nnc(SCC2=C(C(=O)O)N3C(=O)[C@@H](NC(=O)Cn4cnnn4)[C@H]3SC2)s1 [Cefazolin, reference compound]
Antibiotic susceptibility profile [3, 10]: R
Antibiotic susceptibility profile [3, 11]: R
Antibiotic susceptibility profile [3, 12]: R
Antibiotic susceptibility profile [3, 13]: R
Antibiotic susceptibility profile [3, 14]: R
Antibiotic susceptibility profile [3, 15]: R
Antibiotic susceptibility profile [3, 16]: R
Antibiotic susceptibility profile [3, 17]: R
Antibiotic susceptibility profile [3, 18]: R
Antibiotic susceptibility profile [3, 19]: R
Antibiotic susceptibility profile [3, 20]: R
Antibiotic susceptibility profile [3, 21]: R

MIC [4, 22]: 1 µM (≈ 0.547 µg/mL)
MIC ([4]; strain AB-A3, UPMC): > 16 µM
MIC ([4]; strain AB-F8, UPMC): > 16 µM
MIC ([4]; strain AB-F9, UPMC): 2 µM (≈ 1.09 µg/mL)
MIC ([5]; strain Eco25922): 1 µM (≈ 0.547 µg/mL)
MIC ([5]; strain YDC107, UPMC): 4 µM (≈ 2.19 µg/mL)
MIC ([5]; strain YDC337, UPMC): > 16 µM
MIC ([5]; strain YDC748, UPMC): > 16 µM
MIC ([6]; strain EA518 (aerogenes)): > 16 µM
MIC ([6]; strain EA596 (aerogenes)): > 16 µM
MIC ([6]; strain EC470 (cloacae)): > 16 µM
MIC ([6]; strain EC560 (cloacae)): > 16 µM
MIC [7, 23]: 1 µM (≈ 0.547 µg/mL)
MIC [7, 24]: 12 µM (≈ 6.56 µg/mL)
MIC [7, 25]: 8 µM (≈ 4.37 µg/mL)
MIC [7, 26]: > 16 µM
MIC ([8]; strain PA97-5, UPMC): 1 µM (≈ 0.547 µg/mL)
MIC ([8]; strain PA129-5, UPMC): 2 µM (≈ 1.09 µg/mL)
MIC ([2]; strain EF23614, UPMC): 8 µM (≈ 4.37 µg/mL)
MIC ([2]; strain EF24670, UPMC): > 16 µM
Molecule: CC(C)(O/N=C(\C(=O)N[C@@H]1C(=O)N2C(C(=O)[O-])=C(C[n+]3ccccc3)CS[C@H]12)c1csc(N)n1)C(=O)O [Ceftazidime, reference compound]
Antibiotic susceptibility profile [3, 27]: R
Antibiotic susceptibility profile [3, 28]: R
Antibiotic susceptibility profile [3, 29]: R
Antibiotic susceptibility profile [3, 30]: R
Antibiotic susceptibility profile [3, 10]: S
Antibiotic susceptibility profile [3, 11]: S
Antibiotic susceptibility profile [3, 12]: S
Antibiotic susceptibility profile [3, 13]: S
Antibiotic susceptibility profile [3, 14]: S
Antibiotic susceptibility profile [3, 15]: S
Antibiotic susceptibility profile [3, 16]: S
Antibiotic susceptibility profile [3, 17]: S
Antibiotic susceptibility profile [3, 18]: R
Antibiotic susceptibility profile [3, 19]: R
Antibiotic susceptibility profile [3, 20]: R
Antibiotic susceptibility profile [3, 21]: S
Antibiotic susceptibility profile [3, 31]: R
Antibiotic susceptibility profile [3, 32]: R
Antibiotic susceptibility profile [3, 33]: R
Antibiotic susceptibility profile [3, 34]: S
Antibiotic susceptibility profile [3, 35]: R

MIC [4, 22]: 4 µM (≈ 1.53 µg/mL)
MIC ([4]; strain AB-A3, UPMC): > 16 µM
MIC ([4]; strain AB-F8, UPMC): 8 µM (≈ 3.07 µg/mL)
MIC ([4]; strain AB-F9, UPMC): 8 µM (≈ 3.07 µg/mL)
MIC ([5]; strain Eco25922): 0.5 µM (≈ 0.192 µg/mL)
MIC ([5]; strain YDC107, UPMC): 1 µM (≈ 0.383 µg/mL)
MIC ([5]; strain YDC337, UPMC): 8 µM (≈ 3.07 µg/mL)
MIC ([5]; strain YDC748, UPMC): 8 µM (≈ 3.07 µg/mL)
MIC ([6]; strain EA518 (aerogenes)): > 16 µM
MIC ([6]; strain EA596 (aerogenes)): 16 µM (≈ 6.14 µg/mL)
MIC ([6]; strain EC470 (cloacae)): > 16 µM
MIC ([6]; strain EC560 (cloacae)): 16 µM (≈ 6.14 µg/mL)
MIC [7, 23]: 1 µM (≈ 0.383 µg/mL)
MIC [7, 24]: 2 µM (≈ 0.767 µg/mL)
MIC [7, 25]: 2 µM (≈ 0.767 µg/mL)
MIC [7, 26]: 1 µM (≈ 0.383 µg/mL)
Molecule: C[C@@H](O)[C@H]1C(=O)N2C(C(=O)O)=C(S[C@@H]3CN[C@H](C(=O)N(C)C)C3)[C@H](C)[C@H]12 [Meropenem, reference compound]
Antibiotic susceptibility profile [3, 27]: R
Antibiotic susceptibility profile [3, 28]: R
Antibiotic susceptibility profile [3, 29]: R
Antibiotic susceptibility profile [3, 30]: R
Antibiotic susceptibility profile [3, 10]: S
Antibiotic susceptibility profile [3, 11]: R
Antibiotic susceptibility profile [3, 12]: S
Antibiotic susceptibility profile [3, 13]: I
Antibiotic susceptibility profile [3, 14]: S
Antibiotic susceptibility profile [3, 15]: I
Antibiotic susceptibility profile [3, 16]: R
Antibiotic susceptibility profile [3, 17]: R
Antibiotic susceptibility profile [3, 18]: I
Antibiotic susceptibility profile [3, 19]: R
Antibiotic susceptibility profile [3, 20]: R
Antibiotic susceptibility profile [3, 21]: R
Antibiotic susceptibility profile [3, 31]: R
Antibiotic susceptibility profile [3, 32]: R
Antibiotic susceptibility profile [3, 33]: R
Antibiotic susceptibility profile [3, 34]: I
Antibiotic susceptibility profile [3, 35]: R

Molecule: Cc1onc(-c2ccccc2)c1C(=O)N[C@@H]1C(=O)N2[C@@H]1SC(C)(C)[C@@H]2C(=O)O [Oxacillin, reference compound]
MIC ([1]; strain SA12212, UPMC): 8 µM (≈ 3.21 µg/mL)
MIC ([1]; strain SA18710, UPMC): 4 µM (≈ 1.61 µg/mL)
MIC ([1]; strain SA49775): 0.25 µM (≈ 0.1 µg/mL)
MIC ([1]; strain SA-US300): 4 µM (≈ 1.61 µg/mL)
MIC ([2]; strain EF23614, UPMC): 0.25 µM (≈ 0.1 µg/mL)
MIC ([2]; strain EF24670, UPMC): > 16 µM
MIC ([2]; strain EF26215, UPMC): 2 µM (≈ 0.803 µg/mL)
MIC ([2]; strain EF26692, UPMC): 2 µM (≈ 0.803 µg/mL)
Antibiotic susceptibility profile ([3]; Staphylococcus aureus SA462, CDC AR isolate): S
Antibiotic susceptibility profile ([3]; Staphylococcus aureus SA463, CDC AR isolate): S
Antibiotic susceptibility profile ([3]; Staphylococcus aureus SA561, CDC AR isolate): R
Antibiotic susceptibility profile [9]: S

Molecule: H-RWVRRVRRVWRRVRRVVRRW-OH [E7]
% RBC lysis: 5%

Molecule: RRVVRRWRRVVRRWVRVWRRVVRR [E3]
% RBC lysis: 17%
MIC [7]: 8 µM
